# Experiments:
# Assay type in all cases: cell-based
# [1] = system: LC3 II; experiment: LC3 II formation by Western blot; conditions: SHSY5Y cells, 5 or 10 mM 3MA for 2 hours, then 10 uM C19H24N3O5S5Pr for 7 hours
# [2] = system: SHEP-1 and MDA-MB-231 cancer cells; experiment: Morphological changes of cancer cells; conditions: 10 mM 3MA, then 5 μM (SHEP-1) or 10 μM (MDA-MB-231) C19H24N3O5S5Pr
# [3] = biological target: T1, PPARγ (Homo sapiens, UniProt P37231); design: endogenous in cells; host or cells: SHSY5Y, SHEP1 / SHEP-1 (neuroblastoma); conditions: SHSY5Y and SHEP1 cells in 10% serum, 0 to 10 μM, 18 hours
# T1 sequence (P37231 1-505): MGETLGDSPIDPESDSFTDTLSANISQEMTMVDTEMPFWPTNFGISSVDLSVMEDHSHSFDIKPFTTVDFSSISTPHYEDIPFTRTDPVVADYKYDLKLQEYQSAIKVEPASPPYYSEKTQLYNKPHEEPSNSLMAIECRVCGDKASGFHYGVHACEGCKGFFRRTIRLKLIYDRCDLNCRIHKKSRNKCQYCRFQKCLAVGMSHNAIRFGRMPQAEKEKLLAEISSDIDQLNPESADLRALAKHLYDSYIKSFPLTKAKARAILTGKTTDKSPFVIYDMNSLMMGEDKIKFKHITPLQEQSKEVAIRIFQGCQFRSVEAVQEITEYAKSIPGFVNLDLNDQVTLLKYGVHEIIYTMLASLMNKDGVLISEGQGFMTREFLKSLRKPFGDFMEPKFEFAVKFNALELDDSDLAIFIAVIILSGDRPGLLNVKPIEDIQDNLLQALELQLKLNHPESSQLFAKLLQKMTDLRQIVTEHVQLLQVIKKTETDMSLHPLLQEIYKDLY
# Procedure: To determine if C19H24N3O5S5Pr activates PPARγ, SHSY5Y and SHEP1 neuroblastoma cells were transiently co-transfected with a 3×PPRE luciferase plasmid and renilla plasmid for transfection efficiency. Forty eight hours following transfection, the cells were exposed to increased concentrations (0 to 10 μM) of 15d-PGJ2 and C19H24N3O5S5Pr for 18 hours. The fold increase in luciferase activity correlates with the PPARγ activity of the cell. PPARγ activity is determined by calculating the RLU/renilla/μg total protein.
# To assess if C19H24N3O5S5Pr activation of PPARγ is dependent on expression of PPARγ neuroblastoma cells, neuroblastoma cells SHEP1 and SHSY5Y were transiently co-transfected with a 3×PPRE luciferase plasmid and renilla plasmid for transfection efficiency. Forty eight hours following transfection, cells were exposed to increased concentrations (0 to 20 μM) of C19H24N3O5S5Pr for 18 hours. PPARγ activity was calculated as luciferase RLU/renilla/μg total protein.
# [4] = system: RhoB; experiment: RhoB induction after preincubation with PPAR-γ antagonist; conditions: SHEP-1 cells, 10 uM GW9662 for 2 hours, then 10 uM C19H24N3O5S5Pr for 4 hours
# Procedure: SHEP-1 cancer cells were preincubated with 10 uM GW9662, a pharmacological PPAR-γ antagonist that was able to abrogate the induction of RhoB protein by C19H24N3O5S5Pr, or vehicle control for 2 hours before being exposed to 10 uM of C19H24N3O5S5Pr for 4 hours.
structure (smiles),measurement,setting,value
"Cn1cnc(N)c2ncnc1-2 [3MA, 3-methyl adenine, reference compound]",LC3 II levels induced by C19H24N3O5S5Pr after 3MA preincubation,[1],LC3 II levels were reduced
same,cell morphology after 3MA preincubation followed by C19H24N3O5S5Pr,[2],did not demonstrate this death-like morphology
"CCCCC/C=C/C=C1/C(=O)C=CC1C/C=C\CCCC(=O)O (stereo not shown) [15dPGJ2, 15-deoxy-Delta-12,14, prostaglandin, reference compound]",PPARγ activation (luciferase RLU/renilla/μg total protein),[3],did not display any PPARγ activation
O=C(Nc1ccccc1)c1cc([N+](=O)[O-])ccc1Cl [GW9662],RhoB expression induced by C19H24N3O5S5Pr after antagonist preincubation,[4],RhoB was not expressed

# Reference: patent publication US8691851B2, “Lanthanide metal complexes useful in treating cancer” (National University of Singapore, priority 2009, dated 2014)
